Calls of active or inactive are those of the source. The calls are words filed in the database; no cut-off is given here.
Tests used:
[1] = target: T1, Serine/threonine-protein kinase Chk1 (Homo sapiens) (UniProt O14757); experiment: Inhibition of hydroxyurea-induced CHK1 phosphorylation at S317 residue in human HCT116 cells at 20 uM treated for 8 hrs starting from 24 hrs post hydroxyurea addition by Western blot analysis; type: cell-based
T1 sequence (whole entry): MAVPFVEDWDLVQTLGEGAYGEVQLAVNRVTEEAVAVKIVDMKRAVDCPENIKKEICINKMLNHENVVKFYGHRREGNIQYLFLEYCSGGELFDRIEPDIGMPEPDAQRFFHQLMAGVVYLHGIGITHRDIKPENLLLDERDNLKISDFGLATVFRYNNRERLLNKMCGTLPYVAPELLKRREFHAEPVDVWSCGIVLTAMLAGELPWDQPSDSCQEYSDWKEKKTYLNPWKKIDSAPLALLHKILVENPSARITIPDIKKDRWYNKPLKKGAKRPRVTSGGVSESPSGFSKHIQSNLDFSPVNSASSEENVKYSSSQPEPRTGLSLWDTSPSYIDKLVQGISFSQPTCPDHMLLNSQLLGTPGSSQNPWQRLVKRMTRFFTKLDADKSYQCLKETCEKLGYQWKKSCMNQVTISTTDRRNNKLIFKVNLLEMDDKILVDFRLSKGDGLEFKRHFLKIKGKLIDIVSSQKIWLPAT

[2] = target: Bone morphogenetic protein receptor type-2 (Homo sapiens) (UniProt Q13873); experiment: Inhibition of human BMPR2 assessed as residual activity at 1 uM using MBP as substrate by [gamma-33P]-ATP assay relative to control
[3] = target: Calcium/calmodulin-dependent protein kinase type 1D (Homo sapiens) (UniProt Q8IU85); experiment: Inhibition of human CAMK1D assessed as residual activity at 1 uM using KKALRRQETVDAL as substrate by [gamma-33P]-ATP assay relative to control
[4] = target: Inhibitor of nuclear factor kappa-B kinase subunit alpha (Homo sapiens) (UniProt O15111); experiment: Inhibition of human IKKalpha assessed as residual activity at 1 uM using KKKKERLLDDRHDSGLDSMKDEE as substrate by [gamma-33P]-ATP assay relative to control
Inhibitor of nuclear factor kappa-B kinase subunit alpha (Homo sapiens), sequence (O15111 whole entry): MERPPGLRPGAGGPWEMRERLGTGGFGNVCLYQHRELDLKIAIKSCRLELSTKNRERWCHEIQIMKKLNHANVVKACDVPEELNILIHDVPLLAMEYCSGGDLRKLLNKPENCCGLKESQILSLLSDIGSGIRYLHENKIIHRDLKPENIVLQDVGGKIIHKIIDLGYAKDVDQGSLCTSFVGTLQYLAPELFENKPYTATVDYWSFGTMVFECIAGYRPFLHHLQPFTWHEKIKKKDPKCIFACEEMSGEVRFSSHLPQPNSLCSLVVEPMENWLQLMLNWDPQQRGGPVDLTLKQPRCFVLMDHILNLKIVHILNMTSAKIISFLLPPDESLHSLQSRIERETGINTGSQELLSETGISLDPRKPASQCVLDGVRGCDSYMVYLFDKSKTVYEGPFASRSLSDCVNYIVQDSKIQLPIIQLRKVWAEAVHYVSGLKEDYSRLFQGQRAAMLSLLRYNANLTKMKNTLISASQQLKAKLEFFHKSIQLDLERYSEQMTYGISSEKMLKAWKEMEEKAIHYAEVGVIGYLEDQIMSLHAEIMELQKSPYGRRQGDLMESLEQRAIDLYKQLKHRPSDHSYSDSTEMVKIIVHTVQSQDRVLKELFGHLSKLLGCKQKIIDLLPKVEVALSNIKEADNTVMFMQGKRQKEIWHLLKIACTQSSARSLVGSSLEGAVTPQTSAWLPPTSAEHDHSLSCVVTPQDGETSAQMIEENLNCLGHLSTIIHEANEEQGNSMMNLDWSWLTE

[5] = target: Kinase suppressor of Ras 2 (Homo sapiens) (UniProt Q6VAB6); experiment: Inhibition of human KSR2 assessed as residual activity at 1 uM using KRREILSRRPSYR as substrate by [gamma-33P]-ATP assay relative to control
[6] = target: Mitogen-activated protein kinase kinase kinase 9 (Homo sapiens) (UniProt P80192); experiment: Inhibition of human MLK1 assessed as residual activity at 1 uM using casein as substrate by [gamma-33P]-ATP assay relative to control
[7] = target: Myosin light chain kinase (Homo sapiens) (UniProt Q32MK0); experiment: Inhibition of human MYLK3 assessed as residual activity at 1 uM using KKRPQRRYSNVF as substrate by [gamma-33P]-ATP assay relative to control
[8] = target: Mitogen-activated protein kinase 12 (Homo sapiens) (UniProt P53778); experiment: Inhibition of human p38gamma assessed as residual activity at 1 uM using MBP as substrate by [gamma-33P]-ATP assay relative to control
TGF-beta receptor type-2 = TGF-beta receptor type-2 (Homo sapiens, UniProt P37173); experiment: Inhibition of human TGFBR2 assessed as residual activity at 1 uM using MBP as substrate by [gamma-33P]-ATP assay relative to control
TGF-beta receptor type-2, sequence (P37173 whole entry): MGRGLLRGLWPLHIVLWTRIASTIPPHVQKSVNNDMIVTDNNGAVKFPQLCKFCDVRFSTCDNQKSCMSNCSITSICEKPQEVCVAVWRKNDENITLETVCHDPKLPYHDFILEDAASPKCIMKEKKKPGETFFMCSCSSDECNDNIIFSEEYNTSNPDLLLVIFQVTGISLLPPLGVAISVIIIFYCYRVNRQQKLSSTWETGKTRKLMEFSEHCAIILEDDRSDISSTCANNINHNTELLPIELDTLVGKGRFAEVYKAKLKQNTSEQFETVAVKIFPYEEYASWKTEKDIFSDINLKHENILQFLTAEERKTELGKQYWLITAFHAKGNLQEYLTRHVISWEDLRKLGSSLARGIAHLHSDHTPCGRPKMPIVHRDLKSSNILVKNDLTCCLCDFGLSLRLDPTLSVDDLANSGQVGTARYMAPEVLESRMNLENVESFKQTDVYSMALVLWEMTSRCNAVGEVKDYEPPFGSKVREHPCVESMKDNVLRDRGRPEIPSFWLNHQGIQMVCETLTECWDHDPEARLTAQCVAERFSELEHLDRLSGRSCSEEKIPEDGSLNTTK

[9] = target: Wee1-like protein kinase (Homo sapiens) (UniProt P30291); experiment: Inhibition of human WEE1 assessed as residual activity at 1 uM using MBP as substrate by [gamma-33P]-ATP assay relative to control
[10] = target: Activated CDC42 kinase 1 (Homo sapiens) (UniProt Q07912); experiment: Inhibition of human ACK1 assessed as residual activity at 1 uM using EAIYAAPFAKKK as substrate by [gamma-33P]-ATP assay relative to control
Activated CDC42 kinase 1 (Homo sapiens), sequence (Q07912 whole entry, looked up): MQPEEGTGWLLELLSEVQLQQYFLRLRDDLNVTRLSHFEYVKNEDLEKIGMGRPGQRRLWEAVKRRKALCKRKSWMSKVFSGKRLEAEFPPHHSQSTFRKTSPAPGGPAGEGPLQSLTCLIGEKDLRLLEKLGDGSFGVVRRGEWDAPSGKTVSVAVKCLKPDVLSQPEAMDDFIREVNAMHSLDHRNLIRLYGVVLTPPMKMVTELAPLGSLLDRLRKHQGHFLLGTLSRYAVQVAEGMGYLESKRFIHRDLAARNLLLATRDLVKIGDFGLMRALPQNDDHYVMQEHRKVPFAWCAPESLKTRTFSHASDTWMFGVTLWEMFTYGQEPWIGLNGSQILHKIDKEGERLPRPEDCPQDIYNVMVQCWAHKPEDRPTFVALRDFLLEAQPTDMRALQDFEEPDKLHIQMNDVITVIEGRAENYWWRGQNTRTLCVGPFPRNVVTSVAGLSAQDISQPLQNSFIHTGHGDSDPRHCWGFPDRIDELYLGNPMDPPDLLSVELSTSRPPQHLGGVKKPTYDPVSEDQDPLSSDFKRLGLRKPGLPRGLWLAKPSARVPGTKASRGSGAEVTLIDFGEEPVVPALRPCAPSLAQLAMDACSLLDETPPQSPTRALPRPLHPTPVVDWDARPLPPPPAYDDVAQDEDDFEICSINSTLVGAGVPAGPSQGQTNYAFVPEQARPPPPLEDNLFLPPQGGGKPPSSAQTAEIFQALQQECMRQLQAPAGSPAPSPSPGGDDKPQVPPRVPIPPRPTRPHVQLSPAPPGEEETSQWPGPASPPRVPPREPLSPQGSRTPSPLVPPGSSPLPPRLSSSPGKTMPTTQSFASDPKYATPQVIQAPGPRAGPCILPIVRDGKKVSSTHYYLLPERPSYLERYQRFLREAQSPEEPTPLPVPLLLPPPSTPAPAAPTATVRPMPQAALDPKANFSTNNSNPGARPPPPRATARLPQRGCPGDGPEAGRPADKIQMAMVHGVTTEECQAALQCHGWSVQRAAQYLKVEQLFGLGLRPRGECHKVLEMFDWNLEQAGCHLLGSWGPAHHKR

[11] = target: CDK1/Cyclin E (Homo sapiens) (UniProt P06493+P24864); experiment: Inhibition of human CDK1/cyclinE assessed as residual activity at 1 uM using RB protein as substrate by [gamma-33P]-ATP assay relative to control; type: protein-complex assay
[12] = target: Casein kinase I isoform gamma-1 (Homo sapiens) (UniProt Q9HCP0); experiment: Inhibition of human CK1gamma1 assessed as residual activity at 1 uM using KRRRAL[pS]VASLPGL as substrate by [gamma-33P]-ATP assay relative to control
[13] = target: Serine/threonine-protein kinase/endoribonuclease IRE1 (Homo sapiens) (UniProt O75460); experiment: Inhibition of human ERN1 assessed as residual activity at 1 uM using MBP as substrate by [gamma-33P]-ATP assay relative to control
[14] = target: Tyrosine-protein kinase HCK (Homo sapiens) (UniProt P08631); experiment: Inhibition of human HCK assessed as residual activity at 1 uM using KVEKIGEGTYGVVYK as substrate by [gamma-33P]-ATP assay relative to control
[15] = target: Serine/threonine-protein kinase ICK (Homo sapiens) (UniProt Q9UPZ9); experiment: Inhibition of human LCK2 assessed as residual activity at 1 uM using MBP as substrate by [gamma-33P]-ATP assay relative to control
Serine/threonine-protein kinase ICK (Homo sapiens), sequence (Q9UPZ9 whole entry): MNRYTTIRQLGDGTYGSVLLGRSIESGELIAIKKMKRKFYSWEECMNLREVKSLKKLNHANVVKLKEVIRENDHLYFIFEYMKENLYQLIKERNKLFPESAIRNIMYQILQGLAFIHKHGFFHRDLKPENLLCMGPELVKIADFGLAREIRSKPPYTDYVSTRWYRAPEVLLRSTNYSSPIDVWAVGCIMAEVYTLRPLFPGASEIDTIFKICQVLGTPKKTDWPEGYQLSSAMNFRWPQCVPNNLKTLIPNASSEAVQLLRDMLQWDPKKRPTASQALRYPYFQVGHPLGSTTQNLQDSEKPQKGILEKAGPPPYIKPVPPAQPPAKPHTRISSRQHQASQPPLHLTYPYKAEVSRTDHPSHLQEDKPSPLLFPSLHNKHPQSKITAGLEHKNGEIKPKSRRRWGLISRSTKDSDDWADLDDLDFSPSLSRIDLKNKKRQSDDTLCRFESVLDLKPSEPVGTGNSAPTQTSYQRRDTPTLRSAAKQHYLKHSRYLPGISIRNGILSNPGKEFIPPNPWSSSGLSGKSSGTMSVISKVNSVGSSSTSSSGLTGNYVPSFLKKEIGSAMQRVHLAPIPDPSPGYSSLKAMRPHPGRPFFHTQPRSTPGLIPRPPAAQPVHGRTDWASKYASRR

[16] = target: Myosin light chain kinase, smooth muscle (Homo sapiens) (UniProt Q15746); experiment: Inhibition of human MLCK assessed as residual activity at 1 uM using KKLNRTLSFAEPG as substrate by [gamma-33P]-ATP assay relative to control
[17] = target: Myosin-IIIb (Homo sapiens) (UniProt Q8WXR4); experiment: Inhibition of human MYO3B assessed as residual activity at 1 uM using MBP as substrate by [gamma-33P]-ATP assay relative to control
[18] = target: PAS domain-containing serine/threonine-protein kinase (Homo sapiens) (UniProt Q96RG2); experiment: Inhibition of human PASK assessed as residual activity at 1 uM using KKLNRTLSFAEPG as substrate by [gamma-33P]-ATP assay relative to control
PAS domain-containing serine/threonine-protein kinase (Homo sapiens), sequence (Q96RG2 whole entry, the tested form may be a part): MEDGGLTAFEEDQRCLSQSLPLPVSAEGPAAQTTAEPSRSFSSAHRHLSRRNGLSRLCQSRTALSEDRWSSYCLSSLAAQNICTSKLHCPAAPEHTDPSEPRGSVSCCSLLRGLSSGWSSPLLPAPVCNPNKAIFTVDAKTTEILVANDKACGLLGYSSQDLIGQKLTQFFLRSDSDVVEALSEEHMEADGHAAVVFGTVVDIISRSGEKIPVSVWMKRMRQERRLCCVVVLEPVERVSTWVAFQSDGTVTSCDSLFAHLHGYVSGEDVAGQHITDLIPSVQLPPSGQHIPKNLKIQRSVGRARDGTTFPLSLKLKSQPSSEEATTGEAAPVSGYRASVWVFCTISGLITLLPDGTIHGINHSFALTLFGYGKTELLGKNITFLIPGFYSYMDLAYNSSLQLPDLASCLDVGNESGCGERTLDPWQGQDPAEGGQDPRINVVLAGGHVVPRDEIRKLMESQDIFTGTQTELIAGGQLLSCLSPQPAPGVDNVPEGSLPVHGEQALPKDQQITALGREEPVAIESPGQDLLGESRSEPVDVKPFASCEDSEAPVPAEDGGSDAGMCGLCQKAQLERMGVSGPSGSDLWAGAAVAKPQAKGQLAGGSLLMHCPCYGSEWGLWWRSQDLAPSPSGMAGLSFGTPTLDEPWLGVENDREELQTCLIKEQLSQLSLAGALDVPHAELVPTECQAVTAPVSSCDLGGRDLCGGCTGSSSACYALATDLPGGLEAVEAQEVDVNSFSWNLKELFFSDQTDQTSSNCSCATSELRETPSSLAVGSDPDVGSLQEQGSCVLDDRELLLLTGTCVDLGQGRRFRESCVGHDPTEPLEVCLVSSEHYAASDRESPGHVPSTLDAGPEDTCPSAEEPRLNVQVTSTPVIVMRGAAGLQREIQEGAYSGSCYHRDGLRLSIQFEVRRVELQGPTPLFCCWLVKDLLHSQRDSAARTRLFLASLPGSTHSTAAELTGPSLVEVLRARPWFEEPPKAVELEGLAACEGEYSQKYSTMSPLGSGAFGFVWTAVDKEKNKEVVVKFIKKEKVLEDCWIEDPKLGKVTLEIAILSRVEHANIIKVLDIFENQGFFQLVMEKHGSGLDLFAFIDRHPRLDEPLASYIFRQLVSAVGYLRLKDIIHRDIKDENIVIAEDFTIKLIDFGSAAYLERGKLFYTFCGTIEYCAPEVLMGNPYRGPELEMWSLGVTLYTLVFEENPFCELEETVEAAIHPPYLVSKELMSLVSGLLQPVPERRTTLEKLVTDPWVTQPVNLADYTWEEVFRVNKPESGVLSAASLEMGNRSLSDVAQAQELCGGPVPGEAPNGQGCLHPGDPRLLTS

[19] = target: Inactive tyrosine-protein kinase PEAK1 (Homo sapiens) (UniProt Q9H792); experiment: Inhibition of human PEAK1 assessed as residual activity at 1 uM using MBP as substrate by [gamma-33P]-ATP assay relative to control
[20] = target: Protein kinase C delta type (Homo sapiens) (UniProt Q05655); experiment: Inhibition of human PKCdelta assessed as residual activity at 1 uM using ERMRPRKRQGSVRRRV as substrate by [gamma-33P]-ATP assay relative to control
[21] = target: Serine/threonine-protein kinase PLK2 (Homo sapiens) (UniProt Q9NYY3); experiment: Inhibition of human PLK2 assessed as residual activity at 1 uM using casein as substrate by [gamma-33P]-ATP assay relative to control
Serine/threonine-protein kinase PLK2 (Homo sapiens), sequence (Q9NYY3 whole entry, looked up): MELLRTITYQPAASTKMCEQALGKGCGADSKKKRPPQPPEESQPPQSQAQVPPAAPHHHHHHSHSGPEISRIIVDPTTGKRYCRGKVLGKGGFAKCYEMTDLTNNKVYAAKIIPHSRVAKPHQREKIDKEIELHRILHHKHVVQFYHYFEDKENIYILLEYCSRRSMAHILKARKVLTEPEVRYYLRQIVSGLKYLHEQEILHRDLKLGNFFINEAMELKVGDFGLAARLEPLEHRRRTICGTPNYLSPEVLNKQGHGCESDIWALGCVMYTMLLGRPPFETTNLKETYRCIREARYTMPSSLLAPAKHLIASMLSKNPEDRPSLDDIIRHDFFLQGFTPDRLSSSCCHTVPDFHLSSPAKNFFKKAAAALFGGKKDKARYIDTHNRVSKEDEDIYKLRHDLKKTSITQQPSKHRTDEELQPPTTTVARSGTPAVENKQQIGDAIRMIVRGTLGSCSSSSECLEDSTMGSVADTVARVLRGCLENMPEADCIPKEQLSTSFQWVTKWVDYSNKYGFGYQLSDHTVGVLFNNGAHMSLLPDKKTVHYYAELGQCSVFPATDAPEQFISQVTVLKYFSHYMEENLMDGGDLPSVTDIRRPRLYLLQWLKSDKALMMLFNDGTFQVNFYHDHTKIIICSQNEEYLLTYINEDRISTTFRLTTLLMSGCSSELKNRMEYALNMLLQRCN

[22] = target: Serine/threonine-protein kinase ULK2 (Homo sapiens) (UniProt Q8IYT8); experiment: Inhibition of human ULK2 assessed as residual activity at 1 uM using MBP as substrate by [gamma-33P]-ATP assay relative to control

C(=C\c1ccccc1)/C[N+]12CN3CN(CN(C3)C1)C2
inhibition [1]: Active | Activity [2]: 96.8 to 98.9% | Activity [3]: 98.4 to 98.8% | Activity [4]: 94 to 95.2% | Activity [5]: 90.5 to 97% | Activity [6]: 96.8% | Activity [7]: 92 to 96.4% | Activity [8]: 93.7 to 94.8% | Activity (TGF-beta receptor type-2): 111 to 119% | Activity [9]: 112 to 120%

ClC/C=C/C[N+]12CN3CN(CN(C3)C1)C2
Activity [10]: 90.6 to 94.8% | Activity [11]: 98.8 to 100% | Activity [12]: 94.4 to 96.5% | Activity [13]: 92.5 to 94.8% | Activity [14]: 93.1 to 95.5% | Activity [15]: 85.1 to 89.7% | Activity [16]: 90.5 to 94.9% | Activity [17]: 84.1 to 87.7% | Activity [18]: 94.3 to 95.1% | Activity [19]: 94.2 to 94.3% | Activity [20]: 115 to 117% | Activity [21]: 96.6 to 96.8% | Activity [22]: 93.7 to 95.4%
